Assay results published in patent US20150132339A1, “ADJUVANTED FORMULATIONS OF STR[…]” (NOVARTIS AG, priority 2012, published 2015).

Key:
Format in all cases: physicochemical
[1] = Adsorption of compound K2 to aluminium hydroxide adjuvant (Al—H); conditions: Al—H 2 mg/ml
Method: (§1) To determine whether the K2 remains adsorbed to Al—H, compositions were prepared as above.

[2] = Degradation after formulation; conditions: RrgB321 / K2 / Al—H formulation
Method: (§2) The combination of RrgB321 used in this study corresponds to a fusion between RrgB sequences from (3) Taiwan-23F (2) Finland 6B-12 (1) TIGR4, and thus comprises pili of clades III, II and I. Details of RrgB321 are provided in references 235 and 236. RrgB321 was expressed with a His tag. The final RrgB321 vaccine composition contains antigen (0.4 mg/ml), compound K2 (2 mg/ml), Al—H (2 mg/ml), NaCl (9 mg/ml), histidine buffer (10 mM, pH 6.5), formulation volume: 0.05 ml (in water).
as §1

[3] = Adsorption of RrgB321 to Al—H (SDS-PAGE)
Method: as §2, §1

Compound | compound K2 adsorbed to the Al—H ([1]; at all strengths) [%] | K2 remains adsorbed to Al—H ([1]; HPLC, RrgB321 composition) | degradation patterns after formulation [2] | RrgB321 adsorption to Al—H ([3]; in the absence of K2) [%] | RrgB321 adsorption to Al—H ([3]; in the presence of K2)
Cc1cc(OCCOCCOCCP(=O)(O)O)ccc1CCc1cnc2c(N)nc3cc(CCC(=O)O)ccc3c2c1 [compound K2, 3-(5-amino-2-(2-methyl-4-(2-(2-(2-phosphonoethoxy)ethoxy)ethoxy)phenethyl)benzo[f]-[1,7]naphthyridin-8-yl)propanoic acid] | > 95 | at least 97% | Neither antigen nor K2 showed detectable degradation patterns | – | –
RrgB321: fusion between RrgB sequences from Taiwan-23F, Finland 6B-12 and TIGR4 (clades III, II, I), e.g. SEQ ID NO: 250, His tag | – | – | Neither antigen nor K2 showed detectable degradation patterns | > 95 | approximately 50%
